Source: patent publication US20250360071A1, “AGENT FOR INDUCING CILIUM” (MED R&D Co. Ltd, priority 2022, published 2025)

Legend:
HFDPCs = test: Proliferation of HFDPCs (MTT), Experimental Example 1; format: cell-based, human; details: 48 hours, vs untreated cells
From the text: The activation effect by a glycoside of an oleanane-type triterpenoid was examined using dermal papilla cells of human hair follicles (HFDPCs) which are mesenchymal cells separated from the papilla of the scalp hair follicle of a normal human. As the glycoside of the oleanane-type triterpenoid (which may hereinafter be referred to as “saponin”), arganine D, arganine E, and butyroside D were used. A high proliferation rate of the HFDPCs is correlated with the acceleration of the hair growth cycle.
First, HFDPCs were seeded in a 96-well plate at […] and incubated at 37° C. in a humidified atmosphere of 5% CO2. As a culture medium, a culture medium for hair papilla cell growth to which growth factors (a bovine fetal serum, an insulin, a transferrin, a triiodothyronine, a bovine pituitary extract, or a cyproterone solution) had been added was used.
After 24 hours, the culture medium was exchanged with a culture medium containing each of various concentrations of each saponin, and the cells were incubated for 48 hours.
Subsequently, the cell proliferation was measured using 3-(4,5-dimethyl-thiazol-2-yl)-2,5-diphenyltetrazolium bromide (MTT). Specifically, an MTT reagent (5 mg/mL) was added to the cells and incubated for 8 hours, then 10% sodium dodecyl sulfate (SDS) was added thereto, and the cells were incubated overnight. Thereafter, the absorbance at 570 nm was measured using a microplate reader, and the cell proliferation was quantified as the proportion (%) of the absorbance to an absorbance of the untreated cells. In addition, the survival rate of cells was also measured by a trypan blue exclusion method.

Iqcb1 = Iqcb1 expression from transcriptome / extended network analysis, Experimental Example 8; format: in vivo, mouse; details: dorsal skin, 20th day, 1% applied daily
Experimental: (§1) Extended network analysis was performed based on the results of the transcriptome analysis in Experimental Example 6. FIGS. 20 to 22 are views showing the results of the extended network analysis. FIG. 20 is an analysis result obtained from a dataset of the minoxidil treatment group, FIG. 21 is an analysis result obtained from a dataset of the maslinic acid treatment group, and FIG. 22 is an analysis result obtained from a dataset of the tieghemelin treatment group. In FIGS. 20 to 22, a white circle indicates a gene with increased expression, and a black circle indicates a gene with decreased expression. In addition, the size of the circle indicates the magnitude of a change in expression level.
DDX58 is an innate immune receptor that senses viral nucleic acids in the cytoplasm and activates a downstream signal transduction cascade leading to the production of type I interferons or inflammatory cytokines. IQCB1 is a protein known to be involved in formation of cilium.

dorsal skin [1] = test: Transcriptome analysis and extended network analysis of dorsal skin, Experimental Examples 6 and 8; format: in vivo, mouse; details: 20th day, 1% applied daily; maslinic acid group vs tieghemelin group
Experimental: A mouse in each group of Experimental Example 5 and a mouse in the group which had been subjected to the same treatment as in Experimental Example 5 using 1% tieghemelin (n=6) were euthanized on the 20th day, and the dorsal skin was collected and subjected to transcriptome analysis.
as §1

hair cycle-related genes = test: Fluctuation in expression of hair cycle-related genes from transcriptome, Experimental Example 9; format: in vivo, mouse; details: dorsal skin, 20th day
From the text: A fluctuation in expression of the hair cycle-related genes was examined, based on the results of the transcriptome analysis in Experimental Example 6.

dorsal skin [2] = test: Fluorescence immunostaining of dorsal skin tissue sections, Experimental Example 10; format: in vivo, mouse; details: 20th day
From the text: A mouse in each group of Experimental Examples 5 and 6 was euthanized on the 20th day, the dorsal skin was collected, and the tissue section was subjected to immunostaining.
FIG. 23 is a photomicrograph showing the results of detecting the expressions of β-catenin and K14 by fluorescence immunostaining. In addition, the nuclei were stained with 4′,6-diamidino-2-phenylindole (DAPI). The β-catenin is a hair growth promoting marker and is also a marker for the start of the anagen. K14 is an epidermal marker and is known to increase with the differentiation of hair follicle stem cells.
FIG. 24 is a photomicrograph showing the results of detecting the expression of VEGF by fluorescence immunostaining. In addition, the nuclei were stained with DAPI. VEGF is known to improve the vascularization of hair follicles, increase the size of hair follicles and hair, and promote the growth and circulation of hair follicles.

dorsal skin [3] = test: Gene ontology (GO), GO enrichment and tissue-specific expression analysis of transcriptome, Experimental Example 7; format: in vivo, mouse; details: 20th day
Experimental: Gene ontology (GO) analysis and GO enrichment analysis were performed based on the results of the transcriptome analysis in Experimental Example 6.
Subsequently, term enrichment analysis of the genes with expression increased specifically with respect to the skin tissue was performed. Using tissue-specific expression analysis (TSEA), genes related to the skin tissue were filtered, and functions that were specifically enriched in the maslinic acid treatment group and the tieghemelin treatment group and were not enriched in the minoxidil treatment group were selected.

HFDPC [4] = test: Quantitative real-time RT-PCR of hair growth markers in HFDPC, Experimental Example 3; format: cell-based, human; details: 48 hours; for expression level of the FGF1 gene in the HFDPC / expression level of the ALPL gene in the HFDPC / expression level of the CTNNB1 gene in HFDPC: vs control
Experimental: The HFDPC was treated with butyroside D, and then the expression of the hair growth marker was confirmed by quantitative real-time RT-PCR.
As the hair growth markers, a CTNNB1 gene (β-catenin), an ALPL gene (alkaline phosphatase), and an FGF1 gene (fiblobrast growth factor 1) were examined. It is known that the β-catenin induces anagen of the hair cycle and promotes the proliferation of keratinocytes. ALPL is a representative hair growth marker in the hair papilla cells. FGF1 is a marker for morphogenesis of hair follicles.
HFDPCs were seeded in a 6-well plate at 5×10^4 cells/well and incubated at 37° C. for 24 hours. Subsequently, the culture medium was removed and exchanged with a culture medium including 0 (Control), 0.5, 5, and 10 nM of butyroside D. In addition, for comparison, cells treated with a culture medium including minoxidil (0.1 μM), which is an existing pharmaceutical product, were also prepared.
Subsequently, after 48 hours, the cells were washed with cold PBS and a total RNA was extracted using an ISOGEN kit (Nippon Gene Co., Ltd.). Next, the total RNA was quantified using a NanoDrop 2000 spectrophotometer (Thermo Fisher Scientific) and quantitative real-time RT-PCR analysis was performed.
First, using a SuperScript III reverse transcription kit (Thermo Fisher Scientific), a cDNA was synthesized from the extracted total RNA by a cycling protocol of 95° C. for 10 minutes, 40 cycles of 95° C. for 15 seconds, and 60° C. for 1 minute.
Subsequently, a real-time PCR was performed using a 7500 Fast Real-Time PCR system (Software 1.3.1, Thermo Fisher Scientific) and TaqMan probes specific for CTNNB1, ALPL, and FGF1. GAPDH was used as an endogenous control and the relative mRNA amount was calculated by applying a 2^−ΔΔCt method by comparison with GAPDH.

HFDPC [5] = test: as above; format: cell-based, human; details: vs 0.1 M minoxidil (so in the source), 48 hours
C3H male mouse = test: Hair growth promoting effect in vivo, application to depilated dorsal skin, Experimental Example 5; details: 150 μL of 1% applied to dorsal skin every day for 20 days
Experimental: The oleanane-type triterpenoid was applied to the dorsal skin of a mouse and the hair growth promoting effect was examined. Maslinic acid was used as the oleanane-type triterpenoid. In addition, for comparison, a group in which minoxidil was used and a control group in which only a solvent was applied were prepared.
FIG. 12 is a schematic view showing an experimental schedule. After acclimatization of a C3H male mouse, the dorsal skin was depilated with a shaver and a depilatory cream. Thereafter, 150 μL of 1% minoxidil (n=8), 1% maslinic acid (n=6), or a solvent (n=8) was applied to the mouse in each group every day for 20 days, and the mouse was observed over time.
It is known that the hair cycle of a mouse has three stages of an anagen, a catagen, and a telogen. During the anagen (the 1st day to the 16th day), the hair follicle grows into the deep subcutaneous part. In the catagen (the 17th day to the 19th day), the hair follicle stops growing and regresses to the upper subcutaneous part. In the telogen (the 20th day to the 29th day), the hair shaft is in a state where it can be lost at any time. It is known that the color of the dorsal skin of a mouse changes to pink, gray, and black due to the hair cycle. FIG. 13 is a view showing a change in the color of the dorsal skin of a mouse due to the hair cycle.

[6] = fluorescence immunostaining, dorsal skin

## arganine D
HFDPCs; 2 μM
  proliferation of HFDPCs: significantly promotes the proliferation
HFDPCs; 5 μM
  proliferation of HFDPCs: significantly promotes the proliferation
HFDPCs; 10 μM
  proliferation of HFDPCs: significantly promotes the proliferation

## C[C@@H]1O[C@@H](O[C@H]2[C@H](OC(=O)[C@]34CCC(C)(C)C[C@H]3C3=CC[C@@H]5[C@@]6(C)C[C@H](O)[C@H](O[C@@H]7O[C@H](CO[C@@H]8O[C@H](CO)[C@@H](O)[C@H](O)[C@H]8O)[C@@H](O)[C@H](O)[C@H]7O)[C@@](C)(CO)[C@@H]6[C@H](O)C[C@@]5(C)[C@]3(C)CC4)OC[C@@H](O)[C@@H]2O)[C@H](O)[C@H](O)[C@H]1O[C@@H]1OC[C@@H](O)[C@H](O[C@@H]2OC[C@](O)(CO)[C@H]2O)[C@H]1O [arganine E]
HFDPCs; 2 μM
  proliferation of HFDPCs: significantly promotes the proliferation

## C[C@@H]1O[C@@H](O[C@@H]2[C@@H](O)[C@H](O[C@@H]3[C@@H](O)[C@@H](O)[C@H](O[C@H]4[C@H](OC(=O)[C@]56CCC(C)(C)C[C@H]5C5=CC[C@@H]7[C@@]8(C)C[C@H](O)[C@H](O[C@@H]9O[C@H](C(=O)O)[C@@H](O)[C@H](O)[C@H]9O)[C@@](C)(CO)[C@@H]8[C@H](O)C[C@@]7(C)[C@]5(C)C[C@H]6O)OC[C@H](O)[C@@H]4O)O[C@H]3C)OC[C@H]2O)[C@H](O)[C@H](O)[C@H]1O [tieghemelin]
Iqcb1
  Iqcb1 expression: upregulated
  expression level of Iqcb1 compared with the minoxidil treatment group: increased more
Dorsal skin [1]
  pattern of differentially expressed genes in the dorsal skins: showed the same pattern
Hair cycle-related genes
  expression level of Aepb1: decreased
  expression level of KRT15: decreased
  expression of NF-κB: decreased
Dorsal skin [2]; dorsal skin section
  stage of the hair follicle from its shape: anagen (II)
Dorsal skin [2]; [6]
  expression of K14: highly expressed
  expression of VEGF: highly expressed
  expression of β-catenin: highly expressed
Dorsal skin [3]
  number of genes with decreased expression common among the minoxidil, maslinic acid and tieghemelin treatment groups: 316
  number of genes with decreased expression common between the minoxidil and tieghemelin treatment groups: Ninety-four
  number of genes with increased expression common among the minoxidil, maslinic acid and tieghemelin treatment groups: 342
  number of genes with increased expression common between the minoxidil and tieghemelin treatment groups: One-hundred-twenty-eight
Dorsal skin [3]; functions not enriched in the minoxidil treatment group
  functions specifically enriched among skin-tissue genes with increased expression (TSEA): the proliferation of keratinocytes and epithelial cells, the control of the MAPK cascade, the intercellular adhesion, and the activation of the cytokine receptor interaction

## butyroside D
HFDPCs; 2 μM
  proliferation of HFDPCs: significantly promotes the proliferation
HFDPCs; 5 μM
  proliferation of HFDPCs: significantly promotes the proliferation
HFDPCs; 10 μM
  proliferation of HFDPCs: significantly promotes the proliferation
HFDPC [4]; 0.5 nM
  expression level of the FGF1 gene in the HFDPC: significantly increased
HFDPC [4]; 5 nM
  expression level of the ALPL gene in the HFDPC: significantly increased
  expression level of the CTNNB1 gene in HFDPC: significantly increased
  expression level of the FGF1 gene in the HFDPC: significantly increased
HFDPC [4]; 10 nM
  expression level of the ALPL gene in the HFDPC: significantly increased
  expression level of the CTNNB1 gene in HFDPC: significantly increased
  expression level of the FGF1 gene in the HFDPC: significantly increased
HFDPC [4]; vs 0.1 μM minoxidil
  effect of increasing the expression level of the ALPL gene compared with minoxidil positive control (sentence in the FGF1 paragraph): more than the effect of the treatment with 0.1 μM minoxidil
HFDPC [5]
  effect of increasing the expression level of the ALPL gene compared with minoxidil positive control: more than the effect of the treatment with 0.1 M minoxidil
  effect of increasing the expression level of the CTNNB1 gene compared with minoxidil positive control: more than the effect of the treatment with 0.1 M minoxidil

## Nc1cc(N2CCCCC2)nc(N)[n+]1[O-] [minoxidil, reference compound]
Dorsal skin [3]
  number of genes with decreased expression common among the minoxidil, maslinic acid and tieghemelin treatment groups: 316
  number of genes with increased expression common among the minoxidil, maslinic acid and tieghemelin treatment groups: 342
C3H male mouse
  influence on the body weight of the mouse: No influence on the body weight
